Experimental data published in patent US20260297164A1, “ANTI-FIBROTIC PEPTIDES AND USES THEREOF” (Deackt, Inc., priority 2021, published 2026).

System: mouse lung fibroblasts
Test: FasL-induced cell death of TGF-β1-stimulated mouse lung fibroblasts
Type: cell-based
Conditions: wild-type cells, TGF-β1 stimulation; FasL 200 ng/ml
Source text: FIG. 2. CD148 deficiency in fibroblasts worsens pulmonary fibrosis in bleomycin-treated mice and increases fibroblast activation in response to TGF-β1. CD148 fibroblast-specific knockout mice (Ptprj^fl/fl Col1a2^Cre-ER(T)+/0 were developed as described in Methods. (A) Ptprj^fl/fl Col1a2^Cre-ER(T)+/0 mice or Col1a2^Cre-ER(T)+/0 (wild type) mice were exposed to BLM to induce lung fibrosis. At day 21, mouse lungs were harvested and stained with Masson's trichrome (n=3 for saline and n=5 for BLM groups). (B) Hydroxyproline content was measured in the left lung of Ptprj^fl/fl Col1a2^Cre-ER(T)+/0 mice (n=12) and Col1a2^Cre-ER(T)+/0 (WT) mice (n=12) exposed to BLM, and Ptprj^fl/fl Col1a2^Cre-ER(T)+/0 (n=6) and Col1a2^Cre-ER(T)+/0 (n=6) exposed to saline; at day 21. (C) Relative survival at day 0-21 after BLM. (D-E), α-SMA and CD148 expression in harvested lungs were measured by western blot (n=3-5 for each condition). (F-G) Gene expression of Fn and Col1a1, and Ctgf in harvested lungs was measured using qPCR (n=5 for each condition). […] (I) mRNA levels of Col1a1 and Fn were measured by qPCR (n=5 for each condition). […] Gel contractility was measured at 0, 12 and 24 h after TGF-β1 (10 ng/ml) stimulation (n=6 for each condition). […] At 24 h, cell viability was measured with MTT assay (n=5 for each condition). […]

## TGF-β1
  FasL-induced cell death and apoptosis: induced resistance
